“And” between values parts separate entries of the source, which are not always exact repeats. Equal entries are not always repeated.
Tested on: WM3248 melanoma cells, 486 antibodies
Assay: Reverse phase protein arrays (RPPA)
Format: cell-based, Human
Excerpt: Pellets were snap frozen in liquid nitrogen and shipped to MD Anderson Cancer Center core RPPA facility for RPPA analysis (Table S5). Three biological replicates for each sample were generated.
Nomenclatures on the RPPA heatmaps: name_of_antibody.species_of_antibody.status_of_antibody. V - antibody validated; C - validation of antibody in progress; Q - antibody nonspecific; E – under evaluation; antibodies raised in M - mouse, G - goat, R - rabbit, or T - rat.

[1] = Norm_10, replicates 1-3 and Average, relative to Norm_0

## CN(C)c1cccc(Nc2cc(-c3ccccc3)nc(C3CCNCC3)n2)c1 [ARN22089, N1,N1-dimethyl-N3-(6-phenyl-2-(piperidin-4-yl)pyrimidin-4-yl)benzene-1,3-diamine]
[1]
  A.Raf.R.V RPPA signal, normalized: 1.018 and 0.886 and 0.845 and 0.916
  A.Raf_pS299.R.C RPPA signal, normalized: 0.956 and 1.046 and 0.963 and 0.988
  ACC1.R.C RPPA signal, normalized: 0.867 and 0.964 and 1.014
  ACC_pS79.R.V RPPA signal, normalized: 1.238 and 0.635 and 0.956 and 0.943
  ACLY_pS455.R.V RPPA signal, normalized: 1.247 and 1.003 and 1.249 and 1.166
  ACSL1.R.V RPPA signal, normalized: 1.119 and 1.062 and 0.954
  ACVRL1.R.C RPPA signal, normalized: 0.974 and 1.028 and 1.030
  ADAR1.M.V RPPA signal, normalized: 1.080 and 1.272 and 0.921
  ALKBH5.R.V RPPA signal, normalized: 1.021 and 1.291 and 1.103 and 1.138
  AMPK.a2_pS345.R.V RPPA signal, normalized: 0.954 and 0.956 and 0.960
  AMPKa.R.C RPPA signal, normalized: 1.010 and 0.920 and 1.002 and 0.977
  AMPKa_pT172.R.C RPPA signal, normalized: 3.569 and 0.222 and 0.796 and 1.529
  AR.R.V RPPA signal, normalized: 0.751 and 0.934 and 0.920
  ARID1A.R.C RPPA signal, normalized: 1.114 and 1.573 and 0.868 and 1.185
  ASNS.R.V RPPA signal, normalized: 1.340 and 0.994 and 0.954 and 1.096
  ATM.R.V RPPA signal, normalized: 0.847 and 0.838 and 0.979 and 0.888
  ATM_pS1981.R.V RPPA signal, normalized: 0.930 and 1.145
  ATP5A.M.C RPPA signal, normalized: 1.031 and 1.371 and 1.971 and 1.457
  ATP5H.R.V RPPA signal, normalized: 0.974 and 1.346 and 1.188 and 1.169
  ATR.R.V RPPA signal, normalized: 0.962 and 1.081 and 1.002 and 1.015
  ATRX.R.C RPPA signal, normalized: 0.876 and 0.968 and 0.978
  ATR_pS428.R.C RPPA signal, normalized: 1.008 and 0.851 and 1.012 and 0.957
  AceCS1.R.V RPPA signal, normalized: 1.235 and 1.121
  Akt1.R.V RPPA signal, normalized: 0.800 and 0.756 and 1.156 and 0.904
  Akt1_pS473.R.V RPPA signal, normalized: 0.892 and 0.682 and 1.059 and 0.878
  Akt2.R.V RPPA signal, normalized: 0.829 and 0.768 and 1.018 and 0.872
  Akt2_pS474.R.C RPPA signal, normalized: 1.011 and 0.801 and 0.950
  Akt.R.V RPPA signal, normalized: 0.830 and 0.878 (2×) and 0.925
  Akt_pS473.R.V RPPA signal, normalized: 2.128 and 0.984 and 1.238 and 1.450
  Akt_pT308.R.V RPPA signal, normalized: 1.187 and 1.056 and 1.185 and 1.143
  Ambra1_pS52.R.C RPPA signal, normalized: 0.964 (2×) and 1.015 and 0.981
  Annexin.I.M.V RPPA signal, normalized: 0.849 and 0.987 and 1.005
  Annexin.VII.M.V RPPA signal, normalized: 0.985 and 1.189 and 0.954
  Atg3.R.V RPPA signal, normalized: 0.983 and 0.993 and 0.963
  Atg4B.R.C RPPA signal, normalized: 0.966 and 1.004
  Atg5.R.C RPPA signal, normalized: 0.905 and 0.930 and 0.971 and 0.935
  Atg7.R.V RPPA signal, normalized: 0.958 and 0.891 and 0.903 and 0.917
  Aurora.A.R.C RPPA signal, normalized: 0.694 and 1.245 and 1.028 and 0.989
  Aurora.ABC_pT288_pT232_pT198.R.C RPPA signal, normalized: 1.548 and 0.847 and 0.955 and 1.117
  Aurora.B.R.V RPPA signal, normalized: 1.012 and 1.271 and 1.347 and 1.210
  Axl.R.V RPPA signal, normalized: 1.047 and 0.637 and 0.861 and 0.848
  B7.H3.R.C RPPA signal, normalized: 0.961 and 0.915 and 0.940 and 0.939
  B7.H4.R.C RPPA signal, normalized: 0.943 and 0.916 and 1.001 and 0.953
  B.Raf.R.C RPPA signal, normalized: 0.738 and 0.844 and 1.157 and 0.913
  B.Raf_pS445.R.V RPPA signal, normalized: 0.940 and 0.823 and 0.918 and 0.894
  BAP1.M.V RPPA signal, normalized: 0.893 and 1.010 and 1.204
  BCL2A1.R.V RPPA signal, normalized: 0.914 and 2.333 and 1.252 and 1.499
  BMK1.Erk5_pT218_Y220.R.V RPPA signal, normalized: 0.935 and 0.870 and 0.918
  BRCA1.M.C RPPA signal, normalized: 0.931 and 1.056 and 1.010
  BRD4.R.V RPPA signal, normalized: 1.134 and 1.372 and 0.806 and 1.104
  Bad_pS112.R.V RPPA signal, normalized: 1.129 and 0.968 and 1.064 and 1.054
  Bak.R.C RPPA signal, normalized: 1.051 and 0.994 and 0.952 and 0.999
  Bax.R.V RPPA signal, normalized: 0.935 and 1.085 and 1.013 and 1.011
  Bcl2.R.C RPPA signal, normalized: 0.991 and 1.244 and 1.141 and 1.125
  Bcl.xL.R.V RPPA signal, normalized: 0.890 and 1.164 and 1.151
  Beclin.R.C RPPA signal, normalized: 0.901 and 1.245 and 1.080
  BiP.GRP78.M.C RPPA signal, normalized: 0.879 and 1.117 and 1.006 and 1.001
  Bid.R.C RPPA signal, normalized: 0.866 and 0.980 and 0.948 and 0.931
  Bim.R.V RPPA signal, normalized: 0.847 and 0.884 and 0.890 and 0.874
  X4E.BP1.R.V RPPA signal, normalized: 1.207 and 0.505 and 0.892 and 0.868
  X4E.BP1_pS65.R.V RPPA signal, normalized: 0.934 and 1.191 and 1.054
  X4E.BP1_pT37_T46.R.V RPPA signal, normalized: 0.921 and 1.081 and 1.234 and 1.079
  X14.3.3.zeta.R.V RPPA signal, normalized: 1.058 and 1.063
  X14.3.3βR.V RPPA signal, normalized: 0.989 and 1.030 and 1.010 (2×)
  X14.3.3εM.C RPPA signal, normalized: 0.934 and 0.986 and 1.121 and 1.013
  X53BP1.R.V RPPA signal, normalized: 0.994 and 0.931 and 0.923
  b.Actin.R.C RPPA signal, normalized: 0.850 and 1.249 and 1.164
  b.Catenin.R.V RPPA signal, normalized: 0.881 and 0.923
  b.Catenin_pT41_S45.R.V RPPA signal, normalized: 1.016 and 0.989 and 1.006 and 1.004
  c.Abl.R.V RPPA signal, normalized: 1.105 and 1.008 and 1.020
  c.Abl_pY412.R.C RPPA signal, normalized: 0.873 and 0.871 and 0.928
  c.IAP2.R.C RPPA signal, normalized: 1.099 and 1.057
Norm_10 Average
  C.Raf.R.C normalized signal: 0.862
  C.Raf_pS338.R.V normalized signal: 0.971
  CA9.R.C normalized signal: 0.943
  CD2.M.C normalized signal: 0.963
  CD4.R.V normalized signal: 0.931
  CD5.M.C normalized signal: 1.007
  CD20.R.C normalized signal: 1.296
  CD26.R.V normalized signal: 1.007
  CD29.M.V normalized signal: 0.953
